Experimental data taken from PubChem BioAssay AID248 (DTP/NCI, 2004).
Values joined by “and” are separate entries in the source; they are usually repeats but may differ in a detail not shown here. Equal values may be shown once. Toxic doses and inconclusive results are not listed. Rule as the data show it: active = T/C of 150% or more; inactive = T/C below 125%.

Test system: L1210 leukemia ip in BDF1 mice, survival T/C
Test: NCI In Vivo Anticancer Drug Screen. Data for tumor model L1210 Leukemia (intraperitoneal) in B6D2F1 (BDF1) mice
Settings: endpoint: mean survival time, higher = longer survival
How it was run: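 Each compound was tested against a transplantable tumor grown in mice. The endpoint was survival, with treated animals benchmarked against vehicle controls as a simple ratio.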

[1] = dose: 50.0 mg/kg/injection, schedule: Q01DX001 (ip), vehicle: saline
[2] = dose: 100.0 mg/kg/injection, schedule: Q01DX001 (ip), vehicle: saline
[3] = dose: 200.0 mg/kg/injection, schedule: Q01DX001 (ip), vehicle: saline
[4] = dose: 12.5 mg/kg/injection, schedule: Q04DX002 (ip), vehicle: saline with Tween-80
[5] = dose: 100.0 mg/kg/injection, schedule: Q01DX001 (ip), vehicle: other
[6] = dose: 200.0 mg/kg/injection, schedule: Q01DX001 (ip), vehicle: other
[7] = dose: 400.0 mg/kg/injection, schedule: Q01DX001 (ip), vehicle: other
[8] = dose: 100.0 mg/kg/injection, schedule: Q04DX002 (ip), vehicle: Klucel (hydroxypropylcellulose) (HPC)
[9] = dose: 200.0 mg/kg/injection, schedule: Q04DX002 (ip), vehicle: Klucel (hydroxypropylcellulose) (HPC)
[10] = dose: 100.0 mg/kg/injection, schedule: Q04DX003 (ip), vehicle: Klucel (hydroxypropylcellulose) (HPC)
[11] = dose: 200.0 mg/kg/injection, schedule: Q04DX003 (ip), vehicle: Klucel (hydroxypropylcellulose) (HPC)
[12] = dose: 400.0 mg/kg/injection, schedule: Q01DX001 (ip), vehicle: saline
[13] = dose: 400.0 mg/kg/injection, schedule: Q04DX003 (ip), vehicle: Klucel (hydroxypropylcellulose) (HPC)
[14] = dose: 25.0 mg/kg/injection, schedule: Q01DX009 (ip), vehicle: Klucel (hydroxypropylcellulose) (HPC)
[15] = dose: 50.0 mg/kg/injection, schedule: Q01DX009 (ip), vehicle: Klucel (hydroxypropylcellulose) (HPC)
[16] = dose: 100.0 mg/kg/injection, schedule: Q01DX001 (ip), vehicle: saline with Tween-80
[17] = dose: 200.0 mg/kg/injection, schedule: Q01DX001 (ip), vehicle: saline with Tween-80
[18] = dose: 75.0 mg/kg/injection, schedule: Q01DX001 (ip), vehicle: other

Measured: T/C

CC(O)[CH2][Sb]([Br])([Br])([c]1ccccc1)[c]1ccccc1 (stereo not drawn)
inactive: dose: 5.0 mg/kg/injection, schedule: Q04DX002 (ip), vehicle: saline with Tween-80 97 % of control | dose: 10.0 mg/kg/injection, schedule: Q04DX002 (ip), vehicle: saline with Tween-80 104 % of control | dose: 20.0 mg/kg/injection, schedule: Q04DX002 (ip), vehicle: saline with Tween-80 104 % of control

c1ccc2[nH]c(-c3c[nH]c4ccccc34)cc2c1
inactive: [1] 106 % of control | [2] 102 % of control | [3] 106 % of control

CC(=O)OC(Cc1nc2ccccc2s1)(C(F)(F)F)C(F)(F)F
inactive: dose: 3.13 mg/kg/injection, schedule: Q04DX002 (ip), vehicle: saline with Tween-80 97 % of control | dose: 6.25 mg/kg/injection, schedule: Q04DX002 (ip), vehicle: saline with Tween-80 91 % of control | [4] 97 % of control | dose: 25.0 mg/kg/injection, schedule: Q04DX002 (ip), vehicle: saline with Tween-80 94 % of control

O=C(OCCCCCCCCOC(=O)c1cccc([N+](=O)[O-])c1)c1cccc([N+](=O)[O-])c1
inactive: [5] 102 % of control | [6] 101 % of control | [7] 96 % of control

NC(=O)NC(=O)CCl
inactive: dose: 50.0 mg/kg/injection, schedule: Q04DX002 (ip), vehicle: Klucel (hydroxypropylcellulose) (HPC) 103 % of control | [8] 109 % of control | [9] 95 % of control

O=C1c2ccccc2-c2cc(Br)c(NC(=O)C(F)(F)F)cc21
inactive: dose: 100.0 mg/kg/injection, schedule: Q04DX003 (ip), vehicle: saline with Tween-80 108 % of control | dose: 200.0 mg/kg/injection, schedule: Q04DX003 (ip), vehicle: saline with Tween-80 105 % of control | dose: 400.0 mg/kg/injection, schedule: Q04DX003 (ip), vehicle: saline with Tween-80 100 % of control

CC(=O)CC(=O)Nc1cccc(O)c1
inactive: dose: 200.0 mg/kg/injection, schedule: Q01DX009 (ip), vehicle: Klucel (hydroxypropylcellulose) (HPC) 91 % of control | dose: 400.0 mg/kg/injection, schedule: Q01DX009 (ip), vehicle: Klucel (hydroxypropylcellulose) (HPC) 100 % of control

CC1=NN(c2ccc(S(=O)(=O)O)cc2)C(=O)/C1=C/c1ccc(Cl)cc1Cl
inactive: [2] 110 % of control | [10] 105 % of control | [3] 96 % of control | [11] 97 % of control | [12] 104 % of control | [13] 94 % of control

COc1ccc(OC)c(NC(=O)Sc2ccccc2O)c1
inactive: [14] 100 % of control | [15] 96 % of control | dose: 100.0 mg/kg/injection, schedule: Q01DX009 (ip), vehicle: Klucel (hydroxypropylcellulose) (HPC) 99 % of control and 89 % of control

N=C(N)c1ncn(C2CC(O)C(CO)O2)c1N (stereo not drawn)
inactive: [2] 106 % of control | [3] 103 % of control

O=C1c2ccsc2C(=O)c2sccc21
inactive: [16] 103 % of control | [17] 92 % of control

CCCN1CC(C(=O)OCC)C(=O)C1=O (stereo not drawn)
inactive: [1] 108 % of control | [2] 100 % of control | [3] 96 % of control | [12] 102 % of control

CNC(=O)NCC1OC(OC2(CO)OC(CNC(=O)NC)C(O)C2O)C(O)C(O)C1O (stereo not drawn)
inactive: dose: 50.0 mg/kg/injection, schedule: Q01DX009 (ip), vehicle: saline 91 % of control | dose: 100.0 mg/kg/injection, schedule: Q01DX009 (ip), vehicle: saline 98 % of control | dose: 200.0 mg/kg/injection, schedule: Q01DX009 (ip), vehicle: saline 98 % of control

CC1(C)N=C(N)N=C(N)N1c1cccc(CO)c1
inactive: [2] 96 % of control | [3] 105 % of control

O=C(O)CCCC1CCCCC1.[Cu+2]
inactive: dose: 2.5 mg/kg/injection, schedule: Q01DX009 (ip), vehicle: Klucel (hydroxypropylcellulose) (HPC) 101 % of control | dose: 2.5 mg/kg/injection, schedule: Q04DX003 (ip), vehicle: Klucel (hydroxypropylcellulose) (HPC) 97 % of control | dose: 5.0 mg/kg/injection, schedule: Q01DX009 (ip), vehicle: Klucel (hydroxypropylcellulose) (HPC) 101 % of control | dose: 5.0 mg/kg/injection, schedule: Q04DX003 (ip), vehicle: Klucel (hydroxypropylcellulose) (HPC) 101 % of control | dose: 10.0 mg/kg/injection, schedule: Q01DX009 (ip), vehicle: Klucel (hydroxypropylcellulose) (HPC) 92 % of control | dose: 10.0 mg/kg/injection, schedule: Q04DX003 (ip), vehicle: Klucel (hydroxypropylcellulose) (HPC) 97 % of control

O=C(CCl)N1CC2CCC(CC2)C1
inactive: [10] 97 % of control

CNC(=O)NC1ON=C(c2ccccc2)C1C(=O)NC (stereo not drawn)
inactive: [16] 98 % of control | [17] 95 % of control

Cc1ccc(C(=O)C(C)CN2CCCCC2)cc1 (stereo not drawn)
inactive: [2] 97 % of control | [3] 94 % of control

CCCCN=Cc1ccccc1O.CCCCN=Cc1ccccc1O.[Cu]
inactive: dose: 6.25 mg/kg/injection, schedule: Q01DX009 (ip), vehicle: Klucel (hydroxypropylcellulose) (HPC) 91 % of control | dose: 12.5 mg/kg/injection, schedule: Q04DX002 (ip), vehicle: Klucel (hydroxypropylcellulose) (HPC) 107 % of control | [14] 97 % of control | dose: 25.0 mg/kg/injection, schedule: Q04DX002 (ip), vehicle: Klucel (hydroxypropylcellulose) (HPC) 89 % of control | [8] 104 % of control

COc1ccc(C(=O)Nc2ccccc2)cc1NC(=S)Nc1ccccc1
inactive: [8] 95 % of control | [9] 98 % of control

CC(=O)Nc1ccc(/C=N/NC(=S)Nc2cccc3cccnc23)cc1
inactive: [2] 92 % of control | [3] 97 % of control | [12] 97 % of control

C/C=C\C=N\NC(N)=S
inactive: dose: 12.5 mg/kg/injection, schedule: Q04DX003 (ip), vehicle: saline with Tween-80 95 % of control | dose: 25.0 mg/kg/injection, schedule: Q04DX003 (ip), vehicle: saline with Tween-80 103 % of control | dose: 50.0 mg/kg/injection, schedule: Q04DX003 (ip), vehicle: saline with Tween-80 95 % of control

CCCCC(CC)COc1ccc(N=C(N)N=C(N)N)cc1 (stereo not drawn)
inactive: dose: 100.0 mg/kg/injection, schedule: Q04DX002 (ip), vehicle: saline with Tween-80 105 % of control

CCSC1=NCCS1
inactive: dose: 9.5 mg/kg/injection, schedule: Q01DX001 (ip), vehicle: other 103 % of control | dose: 19.0 mg/kg/injection, schedule: Q01DX001 (ip), vehicle: other 112 % of control | dose: 38.0 mg/kg/injection, schedule: Q01DX001 (ip), vehicle: other 103 % of control | [18] 112 % of control | dose: 150.0 mg/kg/injection, schedule: Q01DX001 (ip), vehicle: other 101 % of control

CC(C)(C)OOC(=O)c1ccccc1
inactive: [14] 96 % of control | dose: 50.0 mg/kg/injection, schedule: Q01DX001 (ip), vehicle: other 90 % of control | [15] 97 % of control | dose: 75.0 mg/kg/injection, schedule: Q01DX009 (ip), vehicle: Klucel (hydroxypropylcellulose) (HPC) 97 % of control and 101 % of control | [5] 100 % of control | [10] 107 % of control | [6] 102 % of control | [11] 115 % of control | [7] 94 % of control | [13] 96 % of control

COc1ccc2nc3cc(Cl)ccc3c(NCCCCN(C)C)c2c1
inactive: dose: 6.0 mg/kg/injection, schedule: Q04DX003 (ip), vehicle: saline 97 % of control | dose: 12.5 mg/kg/injection, schedule: Q04DX003 (ip), vehicle: saline 99 % of control

O=C1c2ccccc2C(=O)N1CCCCCCN1C(=O)c2ccccc2C1=O
inactive: dose: 100.0 mg/kg/injection, schedule: Q04DX002 (ip), vehicle: gum acacia 96 % of control | dose: 200.0 mg/kg/injection, schedule: Q04DX002 (ip), vehicle: gum acacia 107 % of control | dose: 400.0 mg/kg/injection, schedule: Q04DX002 (ip), vehicle: gum acacia 101 % of control

c1cncc(-c2nnc(-c3cccnc3)o2)c1
inactive: [4] 124 % of control | dose: 50.0 mg/kg/injection, schedule: Q04DX002 (ip), vehicle: saline with Tween-80 91 % of control

Cc1ccc(NC(=O)N(O)C2CCCCC2C#N)cc1 (stereo not drawn)
inactive: [3] 96 % of control | [12] 91 % of control
